# Measurements published in patent US20250120967A1, “TYROSINE KINASES INHIBITORS AND USES THEREOF” (GREAT NOVEL THERAPEUTICS BIOTECH & MEDICALS CORPORATION, priority 2023, published 2025).
# Legend:
# Test in all cases: NCI-60 screen (SRB)
# Assay type in all cases: cell-based
# BT-549 = details: Homo sapiens; BT-549, Breast Cancer
# Protocol: (§1) The human tumor cell lines of the cancer screening panel are grown in RPMI 1640 medium containing 5% fetal bovine serum and 2 mM L-glutamine. For a typical screening experiment, cells are inoculated into 96 well microtiter plates in 100 μL at plating densities ranging from 5,000 to 40,000 cells/well depending on the doubling time of individual cell lines. After cell inoculation, the microtiter plates are incubated at 37° C., 5% CO2, 95% air and 100% relative humidity for 24 h prior to addition of experimental drugs. After 24 h, two plates of each cell line are fixed in situ with TCA, to represent a measurement of the cell population for each cell line at the time of drug addition (Tz). Experimental drugs are solubilized in dimethyl sulfoxide at 400-fold the desired final maximum test concentration and stored frozen prior to use. At the time of drug addition, an aliquot of frozen concentrate is thawed and diluted to twice the desired final maximum test concentration with complete medium containing 50 µg/ml gentamicin. An additional four, 10-fold or M log serial dilutions are made to provide a total of five drug concentrations plus control. Aliquots of 100 μl of these different drug dilutions are added to the appropriate microtiter wells already containing 100 μl of medium, resulting in the required final drug concentrations. Following drug addition, the plates are incubated for an additional 48 h at 37° C., 5% CO2, 95% air, and 100% relative humidity. For adherent cells, the assay is terminated by the addition of cold TCA. Cells are fixed in situ by the gentle addition of 50 μl of cold 50% (w/v) TCA (final concentration, 10% TCA) and incubated for 60 minutes at 4° C. The supernatant is discarded, and the plates are washed five times with tap water and air dried. Sulforhodamine B (SRB) solution (100 l) at 0.4% (w/v) in 1% acetic acid is added to each well, and plates are incubated for 10 minutes at room temperature. After staining, unbound dye is removed by washing five times with 1% acetic acid and the plates are air dried. Bound stain is subsequently solubilized with 10 mM trizma base, and the absorbance is read on an automated plate reader at a wavelength of 515 nm. For suspension cells, the methodology is the same except that the assay is terminated by fixing settled cells at the bottom of the wells by gently adding 50 μl of 80% TCA (final concentration, 16% TCA).
# CCRF-CEM = details: Homo sapiens, Leukemia
# Protocol: as §1
# COLO 205 = details: Homo sapiens; COLO 205, Colon Cancer
# Protocol: as §1
# HCC-2998 = details: Homo sapiens; HCC-2998, Colon Cancer
# Protocol: as §1
# HL-60(TB) = details: Homo sapiens, Leukemia
# Protocol: as §1
# HOP-62 = details: Homo sapiens; HOP-62, Non-Small Cell Lung Cancer
# Protocol: as §1
# HS 578T = details: Homo sapiens, Breast Cancer
# Protocol: as §1
# K-562 = details: Homo sapiens, K562; K-562, Leukemia
# Protocol: as §1
# KM12 = details: Homo sapiens; KM12, Colon Cancer
# Protocol: as §1
# LOX IMVI = details: Homo sapiens, Melanoma
# Protocol: as §1
# MCF7 = details: Homo sapiens; MCF7, Breast Cancer
# Protocol: as §1
# MDA-MB-435 = details: Homo sapiens; MDA-MB-435, Melanoma
# Protocol: as §1
# MOLT-4 = details: Homo sapiens; MOLT-4, Leukemia
# Protocol: as §1
# NCI-H23 = details: Homo sapiens; NCI-H23, Non-Small Cell Lung Cancer
# Protocol: as §1
# NCI-H322M = details: Homo sapiens, Non-Small Cell Lung Cancer
# Protocol: as §1
# NCI-H460 = details: Homo sapiens; NCI-H460, Non-Small Cell Lung Cancer
# Protocol: as §1
# NCI-H522 = details: Homo sapiens; NCI-H522, Non-Small Cell Lung Cancer
# Protocol: as §1
# OVCAR-5 = details: Homo sapiens; OVCAR-5, Ovarian Cancer
# Protocol: as §1
# OVCAR-8 = details: Homo sapiens; OVCAR-8, Ovarian Cancer
# Protocol: as §1
# PC-3 = details: Homo sapiens; PC-3, Prostate Cancer
# Protocol: as §1
# RXF 393 = details: Homo sapiens; RXF 393, Renal Cancer
# Protocol: as §1
# SF-268 = details: Homo sapiens; SF-268, CNS Cancer
# Protocol: as §1
# SF-295 = details: Homo sapiens; SF-295, CNS Cancer
# Protocol: as §1
# SF-539 = details: Homo sapiens; SF-539, CNS Cancer
# Protocol: as §1
# SNB-19 = details: Homo sapiens; SNB-19, CNS Cancer
# Protocol: as §1
# SR = details: Homo sapiens, Leukemia
# Protocol: as §1
# SW-620 = details: Homo sapiens; SW-620, Colon Cancer
# Protocol: as §1
# U251 = details: Homo sapiens, U-251; U251, CNS Cancer
# Protocol: as §1
# UO-31 = details: Homo sapiens; UO-31, Renal Cancer
# Protocol: as §1
SMILES,GI50 (BT-549) [nM],GI50 (CCRF-CEM) [nM],GI50 (COLO 205) [nM],GI50 (HCC-2998) [nM],GI50 (HL-60(TB)) [nM],GI50 (HOP-62) [nM],GI50 (HS 578T) [nM],GI50 (K-562) [nM],GI50 (KM12) [nM],GI50 (LOX IMVI) [nM],GI50 (MCF7) [nM],GI50 (MDA-MB-435) [nM],GI50 (MOLT-4) [nM],GI50 (NCI-H23) [nM],GI50 (NCI-H322M) [nM],GI50 (NCI-H460) [nM],GI50 (NCI-H522) [nM],GI50 (OVCAR-5) [nM],GI50 (OVCAR-8) [nM],GI50 (PC-3) [nM],further results
COc1cc2nccc(Oc3ccc(NC(=O)C4(C(=O)Nc5ccc(F)cc5)CC4)cc3F)c2cc1Oc1ccc(N)cc1F [Cbo-23],2270,553,283,2280,596,1200,148,130,< 10,306,294,363,1230,339,444,457,330,389,2060,1600,GI50 (RXF 393): 103 nM; GI50 (SF-268): 1350 nM; GI50 (SF-295): 66.9 nM; GI50 (SF-539): 179 nM; GI50 (SNB-19): 3130 nM; GI50 (SR): 93.8 nM; GI50 (SW-620): 449 nM; GI50 (U251): 2380 nM; GI50 (UO-31): 316 nM
COc1cc2nccc(Oc3ccc(NC(=O)C4(NC(=O)c5ccc(F)cc5)CC4)cc3F)c2cc1Oc1ccc(N)cc1F [Cbo-10],2410,436,931,6040,521,3480,5320,1740,130,1780,771,737,777,1040,518,1300,450,644,> 100000,> 100000,GI50 (RXF 393): > 100000 nM; GI50 (SF-268): > 100000 nM; GI50 (SF-295): 304 nM; GI50 (SF-539): > 100000 nM; GI50 (SNB-19): > 100000 nM; GI50 (SR): 345 nM; GI50 (SW-620): 661 nM; GI50 (U251): > 100000 nM; GI50 (UO-31): 1810 nM
"COc1cc2nccc(Oc3ccc(NC(=O)C4(NC(=O)c5ccc(F)cc5)CC4)cc3F)c2cc1OC [Cbo-02, N-(1-((4-((6,7-diMethoxyquinolin-4-yl)oxy)-3-fluorophenyl)carbamoyl)cyclopropyl)-4-fluorobenzamide]",1430,2240,1750,2500,2200,1820,2540,3050,2000,1990,3260,1890,5040,2060,3940,2750,2070,1910,3030,3940,GI50 (RXF 393): 2050 nM; GI50 (SF-268): 4170 nM; GI50 (SF-295): 2310 nM; GI50 (SF-539): 1690 nM; GI50 (SNB-19): 3520 nM; GI50 (SR): 3330 nM; GI50 (SW-620): 1630 nM; GI50 (U251): 2880 nM; GI50 (UO-31): 2590 nM
